Experimental data reported in publication PMC12518693, “Potent Fluorescent Probe for Target‐Engagement Studies of Allosteric Pyruvate Kinase Modulators” (Angewandte Chemie (International Ed. in English), 2025).

What was measured:
PKL [1] = molecular target: T1, PKL (Homo sapiens, UniProt P30613); test: Fluorescence indication titration of tracer IV; type: binding; parameters: co-crystallisation of full-length PKL (including the B-domain); 8xHis (TEV-cleavable) (N, cleaved yes); made in house; host or cells: E. coli T7 Express (NEB), pExp-NHis plasmid
T1 sequence (P30613 1-543 isoform P30613-2): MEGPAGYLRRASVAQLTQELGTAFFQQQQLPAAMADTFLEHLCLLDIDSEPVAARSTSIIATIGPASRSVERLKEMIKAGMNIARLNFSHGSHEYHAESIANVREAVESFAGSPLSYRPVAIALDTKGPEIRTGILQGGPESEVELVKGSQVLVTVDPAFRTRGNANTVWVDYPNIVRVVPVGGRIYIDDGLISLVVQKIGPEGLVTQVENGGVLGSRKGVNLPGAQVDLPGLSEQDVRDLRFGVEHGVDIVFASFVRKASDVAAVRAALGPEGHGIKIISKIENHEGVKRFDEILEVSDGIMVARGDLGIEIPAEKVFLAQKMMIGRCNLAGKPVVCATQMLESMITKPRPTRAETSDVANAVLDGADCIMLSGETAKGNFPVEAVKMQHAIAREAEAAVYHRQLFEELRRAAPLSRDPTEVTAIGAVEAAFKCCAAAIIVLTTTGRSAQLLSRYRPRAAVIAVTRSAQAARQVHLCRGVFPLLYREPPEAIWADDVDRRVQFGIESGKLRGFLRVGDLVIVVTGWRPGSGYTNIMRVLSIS
Description: The binding kinetics of IV were further validated with fluorescence titration experiments conducted with recombinant PKL. As previously reported, SBD‐tagged PKL ligands fluorescence upon binding to the allosteric pocket,^[ [43] ^] enabling K D determination by saturation binding. […] Association kinetics were then measured by adding tracer IV to PKL and monitoring fluorescence over time. Data were fit using an exponential association model (Equation S2),^[ [49] ^] and k on was derived from the reciprocal analysis of recorded k obs values. The k off was subsequently calculated (Equation S3).^[ [49] ^] The fluorescent binding experiments were consistent with SPR results, confirming a mid‐nanomolar K D of IV.
Titrations of tracer IV were performed in the presence and absence of 10 µM FBP. […] PKL was prepared as a 2x working solution at a constant concentration used throughout the titration. Equal volumes (10 µL) of 2x tracer and 2x PKL solutions were mixed (1:1) in 384-well microplates (Corning Black PS, 3820). For each experiment, three 12-point triplicate series were prepared containing either: (1) tracer IV and buffer (no PKL), (2) tracer IV and PKL (0.1 µM), (3) tracer IV and PKL (0.1 µM) and mitapivat (10 µM, competitor control). […] Titration data were analyzed in Origin(Pro) 2023^[8] and fitted to the Hill equation to determine EC₅₀ values.

PKL [2] = molecular target: T1, PKL; test: Recombinant PKL activity assay (Kinase-Glo MAX); type: biochemical; parameters: co-crystallisation of full-length PKL (including the B-domain); 8xHis (TEV-cleavable) (N, cleaved yes); made in house; host or cells: E. coli T7 Express (NEB), pExp-NHis plasmid
Description: The two isozymes were incubated with increasing concentrations of compounds before the addition of substrates PEP and adenosine diphosphate (ADP), and the reactions were monitored using a Kinase‐Glo MAX assay.
Figure S2. […] The reactions were terminated by the addition of Kinase Glo-MAX reagent after 10 min, and the luminescence from each reaction was quantified using a plate reader. The activity values are expressed as a percentage of PK activity of the DMSO control. The potencies were calculated by best fit of the Hill equation to the luminescence data.^[2] (A) PKL titrations. (B) PKM2 titrations. Error bars represent the ±SE of replicates (n = 3).
The reaction mixture contained 0.2 mM ADP, 0.1 mM PEP, 5 nM PKL, 1% DMSO, and test compounds at concentrations ranging from 0 to 1 mM across 12 titration points. Prior to substrate addition, PKL and test compounds were pre-incubated for 15 minutes.
After the reaction, 5 µL of Kinase-Glo Max reagent was added to each well. […] For each data set, luminescence from the DMSO control was set as 100% activity, and luminescence from the protein blank (no PKL) as 0% activity. Percentage activity (E%) was calculated using the equation: […]
Titration data was fitted to the Hill equation in Origin to determine EC₅₀ values.

PKM2 = PKM2 (Homo sapiens, UniProt P14618); test: Surface plasmon resonance, PKM2
PKM2, sequence (P14618 whole entry): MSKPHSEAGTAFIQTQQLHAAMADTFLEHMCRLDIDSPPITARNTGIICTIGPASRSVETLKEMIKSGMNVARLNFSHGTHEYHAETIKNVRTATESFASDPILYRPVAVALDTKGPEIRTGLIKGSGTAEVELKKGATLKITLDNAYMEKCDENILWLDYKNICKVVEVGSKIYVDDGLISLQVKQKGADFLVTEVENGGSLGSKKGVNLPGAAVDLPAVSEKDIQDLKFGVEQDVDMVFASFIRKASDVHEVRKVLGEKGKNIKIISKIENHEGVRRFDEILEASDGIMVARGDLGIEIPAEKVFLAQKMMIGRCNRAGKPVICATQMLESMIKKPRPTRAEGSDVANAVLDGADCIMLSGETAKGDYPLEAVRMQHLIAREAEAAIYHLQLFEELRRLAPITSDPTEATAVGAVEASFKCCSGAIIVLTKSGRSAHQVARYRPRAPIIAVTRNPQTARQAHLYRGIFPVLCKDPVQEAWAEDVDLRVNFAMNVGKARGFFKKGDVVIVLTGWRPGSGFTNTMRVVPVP

HEK293 cells = test: Live-cell uptake by confocal microscopy; type: cell-based; conditions: live HEK293, 1 µM
Description: To investigate the cellular permeability of IV, we employed confocal microscopy to monitor the uptake of the tracer in live HEK293 cells over time. The tracer was added to live cells at a final concentration of 1 µM, and real‐time fluorescence intensity was recorded immediately after addition. A rapid increase in fluorescence was observed, reaching a stable plateau approximately 4 min after addition, indicating fast cellular uptake and […] (Figure 3a and Video S1).
Fluorescence intensity was then continuously monitored for 60 min. To assess potential fluorophore degradation, corrected total cell fluorescence (CTCF) was calculated at each time point (Figure S6). Fluorescence values from regions of interest (ROIs) were integrated and normalized cell area and background signals in the absence of tracer.
To attach HEK293 cells to the bottom of 24-well imaging plates (Ibidi 82427), a Cell-Tak adhesive mixture (Corning, 354240) was used. It was prepared with a mixture of sodium bicarbonate (75 g/L), sodium hydroxide (40 g/L) and Cell-Tak (2.03 g/L) at a volume ratio of 291:5:4. For each well, 500 μL of Cell-Tak mix was added and incubated at room temperature for 30 min. […] For analysing intracellular fluorescence and distribution of IV within HEK293 cells, Z-stack images (22 images) were acquired after 5, 15, 30 and 60 min of incubation across a physical depth of ~22 μm. […]

koff (PKL [1]; calculated from K D and k on (Equation S3), read-out: k off fluorescence titration (PKL) (converted)): 0.00865 s⁻¹ | kon (PKL [1]; from k obs values): 206000 M⁻¹ s⁻¹ | Kd (PKL [1]; recombinant PKL, Hill fit, read-out: K D fluorescence titration (PKL)): 42 ± 7 nM | EC50 (PKL [2]; recombinant PKL 10 nM, 15 min pre-incubation, PEP 0.1 mM, ADP 0.2 mM): 13 nM | PKL E max (PKL [2]; recombinant PKL, above 100% activation, below 100% inhibition): 169 % vehicle | Kd (PKM2): 1370 ± 218 nM | koff (PKM2; read-out: k off SPR (PKM2)): 0.0133 s⁻¹ | kon (PKM2; read-out: k on SPR (PKM2)): 9830 M⁻¹ s⁻¹ | time to stable fluorescence plateau after addition (HEK293 cells): approximately 4 min
Compound: CN(C)c1ccc(S(=O)(=O)c2ccc3c(=O)n(Cc4cc[nH]n4)ncc3c2)c2nonc12 [Compound IV, 2-((1H-Pyrazol-3-yl)methyl)-6-((7-(dimethylamino)benzo[c][1,2,5]oxadiazol-4-yl)sulfonyl)phthalazin-1(2H)-one]
effect of FBP on binding affinity (PKL [1]; PKLwt, with and without 10 µM FBP): no significant change in binding affinity
